In one series the test system is P. aeruginosa PCM 499. Briefly: MIC, broth microdilution. The format is cell-based, Pseudomonas aeruginosa. The conditions noted are these: P. aeruginosa PCM 499, 24 h. From the text:
(§1) Escherichia coli (PCM 2057 = ATCC 25922), Staphylococcus aureus (PCM 2054 = ATCC 25923), Staphylococcus epidermidis (PCM 2118 = ATCC 14990), Bacillus subtilis (PCM 2224 = ATCC 9799), Bacillus cereus (PCM 482 = ATCC 10702) and Pseudomonas aeruginosa (PCM 499 = ATCC 10145) were obtained from the Polish Collection of Microorganisms. Fungi strains Candida albicans (CCM 8186 = CNTC 49/64), Candida glabrata (CCM 8270 = ATCC 90030), Candida parapsilosis (CCM 8260 = ATCC 22019) and Candida krusei (CCM 8271 = ATCC 6258) were acquired from the Czech Collection of Microorganisms. S. aureus USA300 (wild type strain), the reference strain of Klebsiella pneumoniae (ATCC 13883) and clinical isolates of Pseudomonas aeruginosa (PA1, PA2) collected from nonrelated patients admitted to the Stefan Zeromski Specialist Municipal Hospital in Krakow (Poland) were kindly provided by the research group of the Department of Microbiology, Faculty of Biochemistry, Biophysics and Biotechnology, Jagiellonian University, Krakow, Poland.
(§2) Luria-Bertani broth (LB) and Sabouraud Dextrose broth (SB) (Biocorp, Poland) were used for cultivation of bacteria and fungi strains, respectively. The antimicrobial activity of the peptides were analyzed through determination of MIC (minimal inhibitory concentration) parameters according to Clinical and Laboratory Standards (CLSI) guidelines developed for aerobic bacteria and yeasts, respectively. Mueller-Hinton broth (MHB) was used as the working medium for all bacterial strains, while in the case of fungi, RPMI-1640 (with L-glutamine, without sodium bicarbonate) growth medium buffered with MOPS (morpholinepropanesulfonic acid) and supplemented with 2% glucose was used. Inoculum was prepared from freshly grown cultures of microorganisms at their exponential phase of growth. […] Plates were then incubated for 24 h at 37 °C in the case of bacteria and at 35 °C in the case of fungi. After that time, absorbance was read at 590 nm with a Perkin Elmer plate reader. Cultures without peptide were treated as positive control, while uninoculated media were defined as negative control. All measurements were run at least in triplicate.
On the technique in general: In broth dilution the organism is exposed to a series of concentrations in liquid medium.

Another series relates to S. aureus PCM 2054. As to the kind of experiment: MIC, broth microdilution. The format is cell-based, Staphylococcus aureus. The settings on record: S. aureus PCM 2054, standard Mueller-Hinton broth, 24 h.
Source text: as §1, §2

Another series concerns C.parapsilosis CCM 8260. Briefly: MIC, broth microdilution. The format is cell-based, Candida parapsilosis. The settings on record: C.parapsilosis CCM 8260, 24 h.
Source text: as §1, §2

A further series in a line: Gelation in water. The conditions noted are these: for gel formation in water: within the range of analyzed concentrations. The series is classed as physicochemical.
Another series concerns B. subtilis PCM 2224. Briefly: MIC, broth microdilution. The series is classed as cell-based, Bacillus subtilis. The conditions noted are these: B. subtilis PCM 2224, 24 h.
Source text: as §1, §2

In another series the test system is E. coli PCM 2057. Briefly: MIC, broth microdilution. The series is classed as cell-based, Escherichia coli. The settings on record: E. coli PCM 2057, 24 h.
Source text: as §1, §2

The next series concerns C.albicans CCM 8186. As to the kind of experiment: MIC, broth microdilution. The series is classed as cell-based, Candida albicans. The settings on record: C.albicans CCM 8186, 24 h.
Source text: as §1, §2

The test system of the next series is primary fibroblasts. As to the kind of experiment: Cytotoxicity, MTT assay. The format is cell-based, human. The conditions noted are these: 24 h. As to the method: (§3) Human dermal fibroblasts were obtained as previously reported from biopsies of healthy human skin of three donors undergoing a surgery. All procedures were approved by the Ethics Committee of Medicinal University of Gdansk (NKEBN/483/2011 and NKBBN/745/2019-2020). Immortalized human HaCaT keratinocytes (DKFZ Heidelberg, Germany) were obtained commercially.
(§4) Both types of cell lines were grown in Dulbecco′s Modified Eagle′s Medium (DMEM) (Sigma-Aldrich, Germany), containing […] of glucose, […] of L- glutamine, sodium pyruvate and sodium bicarbonate. Additionally, the medium was supplemented with 10% FCS (fetal calf serum, Sigma-Aldrich, Germany), 100 U/mL of penicillin and 100 μg/mL of streptomycin (Sigma-Aldrich, Germany). The cells were grown in standard culture dishes (BD, USA) in a humidified atmosphere with 5% CO2 at […], and the medium was changed every 2 days.
(§5) The fibroblasts and keratinocytes were seeded at density of 5500 cells per well into 96-well plates suspended in a medium supplemented with 10% FCS. After 24 h from seeding, the media were exchanged with serum- and antibiotic-free DMEM and tested peptides, dissolved in sterile water, which were added, yielding a final concentration ranging from 1 to 50 μg/mL. The cells were then incubated for the next 24 h. At the end of the experiment, the cells were treated with 20 μL of MTT (5 mg/mL in PBS). After 3 h of incubation in the presence of MTT dye, the DMEM medium was discarded and replaced with 6 mM HCl in isopropanol. When the purple crystals of formazan were fully solubilized, absorbance at 570 nm was read.
On the technique in general: Tetrazolium assays rely on reduction of a dye to a coloured formazan, in cell work by metabolically active cells.

In the next series the test system is keratinocytes (HaCaT). Briefly: Cytotoxicity, MTT assay. The settings on record: 24 h. The format is cell-based, human. On the procedure:
as §3, §4, §5

Another series has as its system C.glabrata CCM 8270. As to the kind of experiment: MIC, broth microdilution. The format is cell-based, Candida glabrata. The conditions noted are these: C.glabrata CCM 8270, 24 h.
Source text: as §1, §2

A further series concerns B. cereus PCM 482. Briefly: MIC, broth microdilution. The series is classed as cell-based, Bacillus cereus. The conditions noted are these: B. cereus PCM 482, 24 h.
Source text: as §1, §2

The subject of the next series is S. epidermidis PCM 2118. Briefly: MIC, broth microdilution. The format is cell-based, Staphylococcus epidermidis. The conditions noted are these: S. epidermidis PCM 2118, 24 h.
Source text: as §1, §2

The next series has as its system C.krusei CCM 8271. Briefly: MIC, broth microdilution. The format is cell-based, Candida krusei. The conditions noted are these: C.krusei CCM 8271, 24 h.
Source text: as §1, §2

The next series has as its system K.pneumoniae ATCC 13883. The series is classed as cell-based, Klebsiella pneumoniae. The conditions noted are these: ATCC 13883, 24 h.
Source text: as §1, §2

Another series relates to P. aeruginosa PA1. The format is cell-based, Pseudomonas aeruginosa. The conditions noted are these: PA1, 24 h.
Source text: as §1, §2

The next series concerns P. aeruginosa PA2. The format is cell-based, Pseudomonas aeruginosa. The settings on record: PA2, 24 h.
Source text: as §1, §2

In brackets after ≈: the same amount, converted by molar mass. Where no end group is shown, it is not given here.

For the compound `CCCCCCCCCCCC(=O)NCCC(=O)N[C@@H](Cc1c[nH]cn1)C(=O)O` [Compound C12-CAR, CH3(CH2)10C(O)-βAH], the MIC100 result with P. aeruginosa PCM 499, with S. aureus PCM 2054, in the series on C.parapsilosis CCM 8260, against B. subtilis PCM 2224, in the series with E. coli PCM 2057 and against C.albicans CCM 8186 was “Non-inhibitory” each time. The MIC100 result in the series with C.glabrata CCM 8270, in the series with B. cereus PCM 482, in the series on S. epidermidis PCM 2118 and against C.krusei CCM 8271 was “Non-inhibitory” throughout. Also, the “gelation of water solution” value in the series “Gelation in water” (concentration of 1 mg/mL) is on record as “underwent gelation”. Also, in the series “Gelation in water”, the “gel formation in water” value is recorded as “formed self-standing gels in water”. The IC50 in the series on primary fibroblasts and with keratinocytes (HaCaT) was greater than 50 µg/mL each time.

On to “IKKILSKIKKLL-NH2 (C-terminus assumed) [DK5, reference compound]”, for which the “MIC100” value is greater than 200 µg/mL with K.pneumoniae ATCC 13883, 100 µg/mL against P. aeruginosa PA1 and 100 µg/mL in the series with P. aeruginosa PA2. For the same compound, the IC50 with primary fibroblasts and with keratinocytes (HaCaT) was greater than 50 µg/mL each time.

As for `CCCCCCCCCCCCCCCC(=O)NCCC(=O)N[C@@H](Cc1c[nH]cn1)C(=O)O` [Compound C16-CAR, CH3(CH2)14C(O)-βAH], the MIC100 result with P. aeruginosa PCM 499, against S. aureus PCM 2054, with C.parapsilosis CCM 8260, with B. subtilis PCM 2224, in the series with E. coli PCM 2057 and in the series with C.albicans CCM 8186 was “Non-inhibitory” throughout. Also, the MIC100 result with C.glabrata CCM 8270, with B. cereus PCM 482, in the series with S. epidermidis PCM 2118 and against C.krusei CCM 8271 was “Non-inhibitory” each time. Moreover, the “gel formation in water” value in “Gelation in water” was “formed self-standing gels in water”. Further, the IC50 in the series on primary fibroblasts was 12.5 µg/mL (≈ 26.9 µM); in the series with keratinocytes (HaCaT), 25 µg/mL (≈ 53.8 µM).

Regarding `CCCCC(=O)NCCC(=O)N[C@@H](Cc1c[nH]cn1)C(=O)O` [Compound C5-CAR, CH3(CH2)3C(O)-βAH], the MIC100 result against P. aeruginosa PCM 499, against S. aureus PCM 2054, in the series with C.parapsilosis CCM 8260, in the series on B. subtilis PCM 2224, in the series with E. coli PCM 2057 and in the series with C.albicans CCM 8186 was “Non-inhibitory” each time. The MIC100 result with C.glabrata CCM 8270, against B. cereus PCM 482, in the series on S. epidermidis PCM 2118 and with C.krusei CCM 8271 was “Non-inhibitory” throughout. In “Gelation in water” (concentrations of up to 5 mg/mL), the gelation in water result is listed as “gelation in water was not observed”. The IC50 in the series with primary fibroblasts and with keratinocytes (HaCaT) was greater than 50 µg/mL each time.

Usually IC50 stands for the concentration that gives 50% inhibition.

Values taken from article PMC8269107, “Lipidation of Temporin-1CEb Derivatives as a Tool for Activity Improvement, Pros and Cons of the Approach” (International Journal of Molecular Sciences, 2021).
